Assay [1] has as its target T1, human CB1 receptor (Homo sapiens, UniProt P21554).
T1 construct: expressed in transfected cells; host or cells: SK-N-MC cells, stably transfected with pcDNA3 CB-1 (human); semi-purified membrane pellet
Briefly: Cannabinoid CB1 receptor binding assay ([3H]-CP-55,940 displacement, SK-N-MC cell membranes). The note with it: for inhibition at 0.2 µM: 1.5 h, read-out: Cannabinoid CB1 Receptor Binding, percent inhibition. The protocol:
(§1) Binding Assay for CB1 or CB2 Agonists or Inverse Agonists
(§2) The human CB1 and CB2 receptors were stably expressed in SK-N-MC cells transfected with pcDNA3 CB-1 (human) or pcDNA3 CB-2 (human). The cells were grown in T-180 cell culture flasks under standard cell culture conditions at 37° C. in a 5% CO2 atmosphere. The cells were harvested by trysinization and homogenized in a homogenization buffer (10 mM Tris, 0.2 mM MgCl2, 5 mM KCl, with protease inhibitors aprotinin, leupeptin, pepstatin A and bacitracin) and centrifuged (2000 g). The supernatant was then centrifuged in 2M sucrose (31,300 g) to produce a semi-purified membrane pellet. The pellet was resuspended in homogenization and stored at −80° C.
(§3) On the day of the assay, the pellet was thawed on ice and diluted in assay buffer (50 mM Tris-HCl, 5 mM MgCl2, 2.5 mM EDTA, 0.5 mg/mL fatty acid free bovine serum albumin, pH 7.5). The diluted membrane pellet was added with buffer, either a test compound or vehicle standard and the radioligand […] (0.2 nM) to the wells of a 96-well polypropylene plate. Non-specific binding was measured in wells containing W1N 55,212 (10 uM). The plate was covered and incubated for 90 minutes at 30° C. The contents were then aspirated onto a Packard Unifilter GF/C filter bottom plate prewet with 0.5% polyethyleneimine. The wells of the polypropylene plate were rinsed and aspirated seven times with a 0.9% saline-0.5% Tween 20 solution. The Unifilter plate was dried, scintillation cocktail was added to each well and the counts representing binding were quantitated in a TopCount scintillation counter.
(§4) For compounds tested, an IC50 binding value was obtained from percent inhibition studies in which various test concentrations were used. The binding value was calculated by linear regression.
(§5) For compounds without an IC50 binding value, the percent inhibition (%) was obtained at a test concentration of 0.2 μM.

Assay [2] has as its target T2, human CB2 receptor (Homo sapiens, UniProt P34972).
T2 construct: expressed in transfected cells; host or cells: SK-N-MC cells, stably transfected with pcDNA3 CB-2 (human); semi-purified membrane pellet
Briefly: Cannabinoid CB2 receptor binding assay ([3H]-CP-55,940 displacement, SK-N-MC cell membranes). The following applies: 1.5 h; test concentration of 0.2 μM; radioligand CP-55,940 0.2 nM; read-out: Cannabinoid CB2 Receptor Binding, percent inhibition. The protocol: as §1, §2, §3, §4, §5

This is an account of results in patent publication US20070117858A1, “SUBSTITUTED 5-HETEROARYL-1-PHENYL-PYRAZOLE CANNABINOID MODULATORS” (priority 2005, published 2007).

T2 sequence (P34972 whole entry): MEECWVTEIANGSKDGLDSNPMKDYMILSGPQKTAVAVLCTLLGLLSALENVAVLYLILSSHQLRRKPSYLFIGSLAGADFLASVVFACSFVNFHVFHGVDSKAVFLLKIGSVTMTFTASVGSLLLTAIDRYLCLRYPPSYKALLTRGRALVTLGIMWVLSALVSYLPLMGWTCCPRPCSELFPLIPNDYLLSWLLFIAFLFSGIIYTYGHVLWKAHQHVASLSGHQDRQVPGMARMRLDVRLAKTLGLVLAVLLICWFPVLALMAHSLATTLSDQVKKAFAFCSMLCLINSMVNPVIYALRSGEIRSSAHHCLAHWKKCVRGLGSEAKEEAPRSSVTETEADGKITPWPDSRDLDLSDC
T1 sequence (P21554 whole entry): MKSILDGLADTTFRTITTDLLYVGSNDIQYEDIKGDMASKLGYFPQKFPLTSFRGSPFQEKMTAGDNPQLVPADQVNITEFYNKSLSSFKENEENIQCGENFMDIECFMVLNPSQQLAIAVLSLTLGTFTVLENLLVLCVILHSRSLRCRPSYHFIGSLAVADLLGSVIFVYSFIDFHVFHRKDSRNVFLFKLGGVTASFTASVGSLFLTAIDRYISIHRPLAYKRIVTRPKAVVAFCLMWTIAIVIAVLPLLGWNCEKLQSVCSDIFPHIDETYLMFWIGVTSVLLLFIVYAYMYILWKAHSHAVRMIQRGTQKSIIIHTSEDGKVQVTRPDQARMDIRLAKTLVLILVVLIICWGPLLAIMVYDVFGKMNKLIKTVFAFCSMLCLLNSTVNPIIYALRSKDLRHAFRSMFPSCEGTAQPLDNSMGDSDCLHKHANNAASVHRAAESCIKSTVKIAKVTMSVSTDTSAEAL

`Cc1c(C(=O)N[C@@H](C)c2ccccn2)nn(-c2ccc(Cl)cc2Cl)c1-c1ccc(Cl)s1` [Cpd 1, 5-(5-chloro-thiophen-2-yl)-1-(2,4-dichloro-phenyl)-4-methyl-1H-pyrazole-3-carboxylic acid [(1S)-1-pyridin-2-yl-ethyl]-amide]: in assay [1], the IC50 (usually the midpoint of a concentration-inhibition curve) stood at 38 nM.
Still for that read-out and setting: with `Cc1c(C(=O)NN2CCCCC2)nn(-c2ccc(Cl)cc2Cl)c1-c1ccc(Cl)s1` [Cpd 2, 5-(5-chloro-thiophen-2-yl)-1-(2,4-dichloro-phenyl)-4-methyl-1H-pyrazole-3-carboxylic acid piperidin-1-ylamide] the figure was 40 nM.
Same read-out and setting: with `Cc1c(C(=O)N[C@@H](C)c2ccccc2)nn(-c2ccc(Cl)cc2Cl)c1-c1ccc(Cl)s1` [Cpd 3, 5-(5-chloro-thiophen-2-yl)-1-(2,4-dichloro-phenyl)-4-methyl-1H-pyrazole-3-carboxylic acid [(1S)-1-phenyl-ethyl]-amide] the figure was 35 nM.
With `Cc1c(C(=O)NN2CCC(O)CC2)nn(-c2ccc(Cl)cc2Cl)c1-c1ccc(Cl)s1` [Cpd 4, 5-(5-chloro-thiophen-2-yl)-1-(2,4-dichloro-phenyl)-4-methyl-1H-pyrazole-3-carboxylic acid (4-hydroxy-piperidin-1-yl)-amide], the inhibition (as a rule, the relative decrease from the control value, in per cent) at 0.2 µM in assay [2] was 11%; in assay [1] it was 27%.
For `Cc1c(C(=O)N[C@H](C)C2CCCCC2)nn(-c2ccc(Cl)cc2Cl)c1-c1cccs1` [Cpd 5, 1-(2,4-dichloro-phenyl)-4-methyl-5-thiophen-2-yl-1H-pyrazole-3-carboxylic acid [(1R)-1-cyclohexyl-ethyl]-amide], the inhibition at 0.2 µM in assay [2] amounted to 15%; in assay [1], 43%.
Take `Cc1c(C(=O)N[C@H](C)c2ccccc2)nn(-c2ccc(Cl)cc2Cl)c1-c1cccs1` [Cpd 6, 1-(2,4-dichloro-phenyl)-4-methyl-5-thiophen-2-yl-1H-pyrazole-3-carboxylic acid [(1R)-1-phenyl-ethyl]-amide]: the inhibition at 0.2 µM in assay [2] is 8%; in assay [1], 57%.
On to `Cc1c(C(=O)N[C@@H](C)c2ccccc2)nn(-c2ccc(Cl)cc2Cl)c1-c1cccs1` [Cpd 7, 1-(2,4-dichloro-phenyl)-4-methyl-5-thiophen-2-yl-1H-pyrazole-3-carboxylic acid [(1S)-1-phenyl-ethyl]-amide], for which the values for the inhibition at 0.2 µM in assay [2] and in assay [1] were 0% and 28%, respectively.
The like results for `Cc1c(C(=O)N[C@@H](C)C2CCCCC2)nn(-c2ccc(Cl)cc2Cl)c1-c1cccs1` [Cpd 8, 1-(2,4-dichloro-phenyl)-4-methyl-5-thiophen-2-yl-1H-pyrazole-3-carboxylic acid [(1S)-1-cyclohexyl-ethyl]-amide] were, in that order, 1% and 34%.
`Cc1c(C(=O)N[C@@H](C)c2ccccn2)nn(-c2ccc(Cl)cc2Cl)c1-c1cccs1` [Cpd 9, 1-(2,4-dichloro-phenyl)-4-methyl-5-thiophen-2-yl-1H-pyrazole-3-carboxylic acid [(1S)-1-pyridin-2-yl-ethyl]-amide]: the inhibition at 0.2 µM turned out to be 8% in assay [2] and 25% in assay [1].
`Cc1c(C(=O)NN2CCCCC2)nn(-c2ccc(Cl)cc2Cl)c1-c1cccs1` [Cpd 10, 1-(2,4-dichloro-phenyl)-4-methyl-5-thiophen-2-yl-1H-pyrazole-3-carboxylic acid piperidin-1-ylamide]: the inhibition at 0.2 µM in assay [2] is 6%; in assay [1] it was 37%.
The like results for `Cc1c(C(=O)NN2CC3CCCC3C2)nn(-c2ccc(Cl)cc2Cl)c1-c1cccs1` (stereo not shown) [Cpd 11, 1-(2,4-dichloro-phenyl)-4-methyl-5-thiophen-2-yl-1H-pyrazole-3-carboxylic acid (hexahydro-cyclopenta[c]pyrrol-2-yl)-amide] were, in that order, 0% and 53%.
As for `Cc1c(C(=O)N[C@@H](C)C2CCCCC2)nn(-c2ccc(Cl)cc2Cl)c1-c1ccc(Cl)s1` [Cpd 12, 5-(5-chloro-thiophen-2-yl)-1-(2,4-dichloro-phenyl)-4-methyl-1H-pyrazole-3-carboxylic acid [(1S)-1-cyclohexyl-ethyl]-amide], in assay [2], the inhibition at 0.2 µM amounted to 40%. This compound came in with an IC50 in assay [1] of 15 nM.
Turning to `Cc1c(C(=O)N[C@H](C)C2CCCCC2)nn(-c2ccc(Cl)cc2Cl)c1-c1ccc(Cl)s1` [Cpd 13, 5-(5-chloro-thiophen-2-yl)-1-(2,4-dichloro-phenyl)-4-methyl-1H-pyrazole-3-carboxylic acid [(1R)-1-cyclohexyl-ethyl]-amide], in assay [2], the inhibition at 0.2 µM was determined as 37%. This compound displayed an IC50 in assay [1] of 74 nM.
The like results for `Cc1c(C(=O)N[C@H](C)c2ccccc2)nn(-c2ccc(Cl)cc2Cl)c1-c1ccc(Cl)s1` [Cpd 14, 5-(5-chloro-thiophen-2-yl)-1-(2,4-dichloro-phenyl)-4-methyl-1H-pyrazole-3-carboxylic acid [(1R)-1-phenyl-ethyl]-amide] were, in that order, 40% and 27 nM.
`CCc1c(C(=O)NN2CCCCC2)nn(-c2ccc(Cl)cc2Cl)c1-c1ccc(Cl)s1` [Cpd 15, 5-(5-chloro-thiophen-2-yl)-1-(2,4-dichloro-phenyl)-4-ethyl-1H-pyrazole-3-carboxylic acid piperidin-1-ylamide]: in assay [2], the inhibition at 0.2 µM is 29%. Besides, in assay [1], the IC50 stood at 12 nM.
For the compound `C[C@@H](NC(=O)c1nn(-c2ccc(Cl)cc2Cl)c(-c2cccs2)c1C#N)c1ccccc1` [Cpd 16, 4-cyano-1-(2,4-dichloro-phenyl)-5-thiophen-2-yl-1H-pyrazole-3-carboxylic acid [(1R)-1-phenyl-ethyl]-amide], the results for the inhibition at 0.2 µM in assay [2] and in assay [1] were 17% and 61%, respectively.
Turning to `C[C@@H](NC(=O)c1nn(-c2ccc(Cl)cc2Cl)c(-c2cccs2)c1C#N)c1ccccn1` [Cpd 17, 4-cyano-1-(2,4-dichloro-phenyl)-5-thiophen-2-yl-1H-pyrazole-3-carboxylic acid [(1R)-1-pyridin-2-yl-ethyl]-amide], the inhibition at 0.2 µM in assay [2] is 14%; in assay [1], 25%.
Take `C[C@@H](NC(=O)c1nn(-c2ccc(Cl)cc2Cl)c(-c2cccs2)c1C#N)C1CCCCC1` [Cpd 18, 4-cyano-1-(2,4-dichloro-phenyl)-5-thiophen-2-yl-1H-pyrazole-3-carboxylic acid [(1R)-1-cyclohexyl-ethyl]-amide]: the inhibition at 0.2 µM in assay [2] came to 21%; in assay [1], 66%.
On to `C[C@H](NC(=O)c1nn(-c2ccc(Cl)cc2Cl)c(-c2cccs2)c1C#N)c1ccccc1` [Cpd 19, 4-cyano-1-(2,4-dichloro-phenyl)-5-thiophen-2-yl-1H-pyrazole-3-carboxylic acid [(1S)-1-phenyl-ethyl]-amide], for which the inhibition at 0.2 µM in assay [2] is 24%; in assay [1], 45%.
Consider `N#Cc1c(C(=O)NN2CCCCC2)nn(-c2ccc(Cl)cc2Cl)c1-c1cccs1` [Cpd 20, 4-cyano-1-(2,4-dichloro-phenyl)-5-thiophen-2-yl-1H-pyrazole-3-carboxylic acid piperidin-1-ylamide], for which the inhibition at 0.2 µM in assay [2] stood at 9%; in assay [1] it was 37%.
The like results for `N#Cc1c(C(=O)N2CCCCC2)nn(-c2ccc(Cl)cc2Cl)c1-c1cccs1` [Cpd 21, 1-(2,4-dichloro-phenyl)-3-(piperidine-1-carbonyl)-5-thiophen-2-yl-1H-pyrazole-4-carbonitrile] were, in that order, 3% and 12%.
`Cc1c(C(=O)N[C@@H](C)c2ccccc2)nn(-c2ccc(Cl)cc2Cl)c1-c1ccc(I)s1` [Cpd 36, 1-(2,4-dichloro-phenyl)-5-(5-iodo-thiophen-2-yl)-4-methyl-1H-pyrazole-3-carboxylic acid [(1S)-1-phenyl-ethyl]-amide] yielded an IC50 in assay [1] of 17 nM.
Same read-out and setting: with `Cc1c(C(=O)N[C@@H](C)c2ccccn2)nn(-c2ccc(Cl)cc2Cl)c1-c1ccc(I)s1` [Cpd 37, 1-(2,4-dichloro-phenyl)-5-(5-iodo-thiophen-2-yl)-4-methyl-1H-pyrazole-3-carboxylic acid [(1S)-1-pyridin-2-yl-ethyl]-amide] the figure was 31 nM; with `Cc1c(C(=O)N[C@H](C)c2ccccc2)nn(-c2ccc(Cl)cc2Cl)c1-c1ccc(I)s1` [Cpd 38, 1-(2,4-dichloro-phenyl)-5-(5-iodo-thiophen-2-yl)-4-methyl-1H-pyrazole-3-carboxylic acid [(1R)-1-phenyl-ethyl]-amide], 23 nM; with `Cc1c(C(=O)N[C@@H](C)C2CCCCC2)nn(-c2ccc(Cl)cc2Cl)c1-c1ccc(I)s1` [Cpd 39, 1-(2,4-dichloro-phenyl)-5-(5-iodo-thiophen-2-yl)-4-methyl-1H-pyrazole-3-carboxylic acid [(1S)-1-cyclohexyl-ethyl]-amide], 18 nM.
